Test results: patent US20230040770A1, “HETEROCYCLIC COMPOUND AND USE THEREOF” (TAKEDA PHARMACEUTICAL COMPANY LIMITED, priority 2019, published 2023)

target: T1, human orexin type 2 receptor (Homo sapiens, UniProt O43614); assay: Measurement of orexin type 2 receptor agonist activity (calcium indicator fluorescence, CHO cells forcibly expressing human OX2 receptor); assay type: cell-based; details: compound at 3 μM; 0% = DMSO, 100% = orexin A (human) 10 nM
T1 construct: expressed in transfected cells
T1 sequence (O43614 1-444): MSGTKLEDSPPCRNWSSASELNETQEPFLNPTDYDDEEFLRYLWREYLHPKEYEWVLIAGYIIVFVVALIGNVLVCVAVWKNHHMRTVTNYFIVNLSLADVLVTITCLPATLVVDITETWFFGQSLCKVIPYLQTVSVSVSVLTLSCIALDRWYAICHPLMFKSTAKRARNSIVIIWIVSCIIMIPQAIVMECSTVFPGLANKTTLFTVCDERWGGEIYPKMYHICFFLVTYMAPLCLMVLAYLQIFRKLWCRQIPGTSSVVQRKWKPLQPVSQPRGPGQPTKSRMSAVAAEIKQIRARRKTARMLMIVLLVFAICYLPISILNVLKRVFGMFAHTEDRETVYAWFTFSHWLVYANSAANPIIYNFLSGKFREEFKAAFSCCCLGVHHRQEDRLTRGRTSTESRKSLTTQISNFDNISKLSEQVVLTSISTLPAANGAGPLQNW
Outline: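 Agonist response normalised between vehicle (0%) and orexin A at 10 nM final (100%), from kinetic Fluo-4 calcium signals recorded for about 2 min after compound addition. Cells: stable human OX2R CHO clone, dye-loaded 30 min at 37 °C plus 30 min at room temperature.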

| Compound | OX2R agonist activity (3 μM, %) |
| --- | --- |
| CCS(=O)(=O)N[C@@H]1[C@H](Cc2cccc(-c3cccc(OC)c3)c2F)N(C(=O)C23CC(C2)C3)CC1(F)F [Example 510, N-{(2S,3R)-1-(bicyclo[1.1.1]pentane-1-carbonyl)-4,4-difluoro-2-[(2-fluoro-3′-methoxy[1,1′-biphenyl]-3-yl)methyl]pyrrolidin-3-yl}ethanesulfonamdie] | 97% |
| CCS(=O)(=O)N[C@@H]1[C@H](Cc2cccc(-c3cccc(F)c3)c2)N(C(=O)C(C)C)CC1(F)F [Example 97, N-[(2S,3R)-4,4-difluoro-2-[(3′-fluoro[1,1′-biphenyl]-3-yl)methyl]-1-(2-methylpropanoyl)pyrrolidin-3-yl]ethanesulfonamide] | 90% |
| CS(=O)(=O)N[C@@H]1[C@H](Cc2cccc(-c3ccccc3)c2F)N(C(=O)C2CC(F)C2)CC1(F)F (stereo partly drawn) [Example 440, N-[(2S,3R)-4,4-difluoro-2-[(2-fluoro[1,1′-biphenyl]-3-yl)methyl]-1-(3-fluorocyclobutane-1-carbonyl)pyrrolidin-3-yl]methanesulfonamide] | 94% |
| CS(=O)(=O)N[C@@H]1[C@H](Cc2cccc(-c3cccc(Cl)c3F)c2F)N(C(=O)C2CCO2)CC1(F)F (stereo partly drawn) [Example 263, N-[(2S,3R)-2-[(3′-chloro-2,2′-difluoro[1,1′-biphenyl]-3-yl)methyl]-4,4-difluoro-1-(oxetane-2-carbonyl)pyrrolidin-3-yl]methanesulfonamide] | 103% |
| CC(C)(O)C(=O)N1C[C@H](F)[C@H](NS(=O)(=O)C2CC2)[C@@H]1Cc1cccc(-c2cccc(F)c2)c1F [Example 369, N-[(2S,3R,4S)-2-[(2,3′-difluoro[1,1′-biphenyl]-3-yl)methyl]-4-fluoro-1-(2-hydroxy-2-methylpropanoyl)pyrrolidin-3-yl]cyclopropanesulfonamide] | 85% |
| CN(C)S(=O)(=O)N[C@@H]1[C@H](Cc2cccc(-c3cccc(F)c3)c2F)N(C(=O)[C@H]2CCO2)CC1(F)F [Example 541, N′-{(2S,3R)-2-[(2,3′-difluoro[1,1′-biphenyl]-3-yl)methyl]-4,4-difluoro-1-[(2R)-oxetane-2-carbonyl]pyrrolidin-3-yl}-N,N-dimethylsulfuric diamide] | 100% |
| O=C(C1CCO1)N1C[C@H](F)[C@H](NS(=O)(=O)C2CC2)[C@@H]1Cc1cccc(-c2ccccc2)c1F (stereo partly drawn) [Example 496, N-[(2S,3R,4S)-4-fluoro-2-[(2-fluoro[1,1′-biphenyl]-3-yl)methyl]-1-(oxetane-2-carbonyl)pyrrolidin-3-yl]cyclopropanesulfonamide] | 95% |
| CCS(=O)(=O)N[C@H]1[C@@H](F)CN(C(=O)C2CCO2)[C@H]1Cc1cccc(-c2ccc(F)c(C)c2)c1F (stereo partly drawn) [Example 500, N-[(2S,3R,4S)-2-[(2,4′-difluoro-3′-methyl[1,1′-biphenyl]-3-yl)methyl]-4-fluoro-1-(oxetane-2-carbonyl)pyrrolidin-3-yl]ethanesulfonamide] | 98% |
| O=C(C1CCO1)N1C[C@H](F)[C@H](NS(=O)(=O)C2CC2)[C@@H]1Cc1cccc(-c2cccc(F)c2F)c1F (stereo partly drawn) [Example 494, N-{(2S,3R,4S)-4-fluoro-1-(oxetane-2-carbonyl)-2-[(2,2′,3′-trifluoro[1,1′-biphenyl]-3-yl)methyl]pyrrolidin-3-yl}cyclopropanesulfonamide] | 96% |
| Cc1cc(F)cc(-c2cccc(C[C@H]3[C@@H](NS(=O)(=O)N(C)C)C(F)(F)CN3C(=O)[C@H]3CCO3)c2F)c1 [Example 540, N′-{(2S,3R)-2-[(2,3′-difluoro-5′-methyl[1,1′-biphenyl]-3-yl)methyl]-4,4-difluoro-1-[(2R)-oxetane-2-carbonyl]pyrrolidin-3-yl}-N,N-dimethylsulfuric diamide] | 100% |
| CCS(=O)(=O)N[C@@H]1[C@H](Cc2cccc(-c3ccccc3)c2F)N(C(=O)[C@H]2CCCO2)CC1(F)F [Example 105, N-{(2S,3R)-4,4-difluoro-2-[(2-fluoro[1,1′-biphenyl]-3-yl)methyl]-1-[(2R)-oxolane-2-carbonyl]pyrrolidin-3-yl}ethanesulfonamide] | 99% |
| CN(C)S(=O)(=O)N[C@H]1[C@@H](F)CN(C(=O)N2CCC2)[C@H]1Cc1cccc(-c2cc(F)cc(F)c2)c1F [Example 458, N′-{(2S,3R,4S)-1-(azetidine-1-carbonyl)-4-fluoro-2-[(2,3′,5′-trifluoro[1,1′-biphenyl]-3-yl)methyl]pyrrolidin-3-yl}-N,N-dimethylsulfuric diamide] | 84% |
| CS(=O)(=O)N[C@@H]1[C@H](Cc2cccc(-c3cccc(F)c3)c2)N(C(=O)C23CC(C2)C3)CC1(F)F [Example 21, N-{(2S,3R)-1-(bicyclo[1.1.1]pentane-1-carbonyl)-4,4-difluoro-2-[(3′-fluoro[1,1′-biphenyl]-3-yl)methyl]pyrrolidin-3-yl}methanesulfonamide] | 102% |
| O=C(C1CCO1)N1C[C@H](F)[C@H](NS(=O)(=O)C2CC2)[C@@H]1Cc1cccc(-c2cccc(F)c2)c1F (stereo partly drawn) [Example 385, N-[(2S,3R,4S)-2-[(2,3′-difluoro[1,1′-biphenyl]-3-yl)methyl]-4-fluoro-1-(oxetane-2-carbonyl)pyrrolidin-3-yl]cyclopropanesulfonamide] | 95% |
| Cc1cccc(-c2cccc(C[C@H]3[C@@H](NS(=O)(=O)C4CC4)[C@@H](F)CN3C(=O)N(C)C)c2F)c1 [Example 538, (2S,3R,4S)-3-[(cyclopropanesulfonyl)amino]-4-fluoro-2-[(2-fluoro-3′-methyl[1,1′-biphenyl]-3-yl)methyl]-N,N-dimethylpyrrolidine-1-carboxamide] | 106% |
| CCS(=O)(=O)N[C@@H]1[C@H](Cc2cccc(-c3cc(Cl)ccc3F)c2F)N(C(=O)C2CC2)CC1(F)F [Example 251, N-[(2S,3R)-2-[(5′-chloro-2,2′-difluoro[1,1′-biphenyl]-3-yl)methyl]-1-(cyclopropanecarbonyl)-4,4-difluoropyrrolidin-3-yl]ethanesulfonamide] | 91% |
